# Results from US10308617B2, “Triazole benzamide derivatives and the compositions and methods of treatment regarding the same” (An2H Discovery Limited, priority 2016, dated 2019).
# Target: Parkin (Homo sapiens, UniProt O60260)
# Experiment: Parkin pUB Auto-ubiquitinylation Assay (TR-FRET)
# Format: biochemical
# Details: Parkin activation, pUb activated Parkin; read-out: Auto-ubiq EC50 (μM) [Example 3]
# Description: A Parkin pUB Auto-ubiquitinylation Assay is used to evaluate a compound's potency to activate Parkin's ability to Auto-ubiquitinylate itself.
# The principle of this assay is that the E3 Ligase Parkin catalyzes the transfer of Ubiquitin to target proteins, but also has the ability to auto-ubiquitinylate itself. The phospho-Ubiquition (pUb) added to the assay alters the Parkin to a state where small molecule activators can enable the Parkin to auto-ubiquitinylate though the E1-E2 cascade reaction. The use of a Eu cryptate Ubiquition and anti 6His-d2 that binds to the His tagged Parkin will give a signal when the Eu cryptate Ubiquition is auto-ubiquitinylate onto the Parkin which can be monitored by TR-FRET.
# Similar to the Activity-based probe assay in Example 2, screening for activating compounds can be distinguished from the controls as follows: • 100% activation signal=pUb activated Parkin+40 nM control activator in DMSO. • 0% activation signal=pUb activated Parkin+DMSO only. • Parkin activators can be identified by an increase of the 0% activation signal TR-FRET signal. Materials: • Assay Plate: White 384 well plate (Corning 3572) • Enzyme 1: E1 (Ubiquitin-activating enzyme/UBE1 Boston Biochem E-305) • Enzyme 2: E2 (UBcH7/Ube2L3 Boston Biochem E2-640) • Enzyme 3: Parkin-His tagged 203 μM (10.5 mg/ml) • pUb: Phospho-Ubiquitin (S65) (Boston Biochem U-102) • Eu Cryptate Reagent: Ubiquitin Eu (CisBio 61UBIKLA) • DMSO: DMSO (Sigma-34869-2.5L) • Reaction Buffer: 50 mM HEPES, 50 mM NaCl, 1 mM MgCl2, 0.005% Tween 20, 0.1% PF-127 (Fisher Scientific 50-310-494), pH 8.5 • Detection Buffer: 50 mM HEPES, 50 mM NaCl, 800 mM KF, 5 mM EDTA, 0.005% Tween 20, 0.1% PF-127, pH 8.5 • Detection Reagent Z: 13.4 nM Anti-6His-d2 in detection buffer • d2 Reagent: Anti-6His-d2 (CisBio 61HISDLA)
# Enzyme Reaction (15 min pre-incubation with Parkin, pUb and activator only) • Parkin: 196 nM • pUb: 196 nM • DMSO: 1% DMSO • E1: 5 nM • E2: 50 nM • Ubiquitin Eu: 8.8 nM • Reaction time: 120 minutes • Temperature: 22° C. • Total volume: 10 μl reaction
# Take 10 μl of Enzyme Reaction above and add 10 μl detection Reagent Z under the following conditions:
# Assay Procedure: • 1) Load assay plate wells with 4.9 μl 400.0 nM Parkin, 400 nM pUb in reaction buffer by use of Eppendorf 12-channel pipette. • 2) Deliver 0.1 μl 100× activator candidates in DMSO by use of Echo 555 compound dispenser. Highest 100× concentration=100 μm and then twofold dilutions. Add each compound and control in duplicate wells. • 3) Spin 1000 rpm, 2 minutes, at room temp. • 4) Incubate plate for 15 minutes at room temp. • 5) Add 5 μl 10 nM E1, 100 nM E2, 17.6 nM Ubiquitin Eu and 2 mM ATP in Reaction Buffer by use of Eppendorf 12-channel pipette. • 6) Spin 1000 rpm, 2 minutes, at room temp. • 7) Incubate plate for 120 minutes at room temp. • 8) Add 10 μl 13.4 nM anti his d2 in detection buffer by use of Eppendorf 12-channel pipette. • 9) Spin 1000 rpm, 2 minutes, at room temp. • 10) Incubate plate for 120 minutes at room temp. • 11) Read plates on Perkin Elmer Envision instrument with the following parameters: • LANCE dual laser protocol loaded into the Envision® software • Top Mirror: LANCE/DELFIA Duel/Bias (Bar code 446) • Emission Filter: APC 665 EM (Bar code 205) • 2nd Emission Filter: Europium 615 EM (Bar code 203) • Read 655 nm (channel 1) and 615 nm (channel 2) wavelengths on Envision®
# Data Analysis: The Data can be read in CSV files. There are two tables in those CSV files, which are the values of 655 nm (channel 1) and 615 nm (channel 2) wavelengths respectively. The data is converted to an HTRF Ratio=(Channel 1/Channel 2)*10,000
# The average of all the 0 uM controls (DMSO only)=BKGD (Background—0% activation). Subtract BKGD from each HTRF Ratio value=HTRF-BKGD. The average of all the […] control activator in DMSO controls=Max (100% activation). The following equation is then used to calculate % Activation for each well/candidate as follows: % Activation=(HTRF-BKGD/Max)*100. […]
# Parkin, sequence (O60260 whole entry, other chains not shown): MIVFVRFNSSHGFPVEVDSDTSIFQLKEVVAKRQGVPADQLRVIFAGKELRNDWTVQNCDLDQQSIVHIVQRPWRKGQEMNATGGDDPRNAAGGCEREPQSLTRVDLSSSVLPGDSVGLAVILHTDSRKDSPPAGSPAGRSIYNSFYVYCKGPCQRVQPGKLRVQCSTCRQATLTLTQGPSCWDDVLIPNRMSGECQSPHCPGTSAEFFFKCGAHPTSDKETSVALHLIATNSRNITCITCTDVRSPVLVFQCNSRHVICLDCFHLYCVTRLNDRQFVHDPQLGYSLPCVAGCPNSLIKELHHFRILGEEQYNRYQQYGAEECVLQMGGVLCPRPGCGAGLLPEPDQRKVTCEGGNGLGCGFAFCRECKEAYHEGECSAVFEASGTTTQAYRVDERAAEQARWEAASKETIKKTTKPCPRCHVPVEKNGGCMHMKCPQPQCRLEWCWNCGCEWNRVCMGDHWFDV
row,Compound,EC50 [µM]
1,O=C(Nc1nc(Nc2cc(N3CCCC3)nc3ccccc23)n(-c2ccccc2)n1)c1ccccc1 [Compound A1],> 40
2,O=C(Nc1nc(Nc2nc(N3CCCC3)c3ccccc3n2)n(-c2ccccc2)n1)c1ccccc1 [Compound B1],> 40
3,CC(=O)Nc1nc(NC(C)=O)n(-c2ccccc2)n1 [Compound B],> 40
4,O=C(Nc1nc(Nc2ncnc3ccccc23)n(-c2ccccc2)n1)c1cccs1 [Compound C1],> 100
5,CN1CCC(C(=O)Nc2nc(Nc3ncnc4ccccc34)n(-c3ccccc3)n2)CC1 [Compound D1],> 40
6,O=C(Nc1nc(NC(=O)c2ccccc2)n(-c2ccc3ccccc3n2)n1)c1ccccc1 [Compound D2],> 40
7,O=C(Nc1nc(Nc2nc(O)nc3ccccc23)n(-c2ccccc2)n1)c1ccccc1 [Compound E1],> 40
8,"O=C(Nc1nc(NC(=O)c2ccccc2)n(-c2ccc(I)cc2)n1)c1ccccc1 [Compound E, N-[5-benzamido-1-(4-iodophenyl)-1,2,4-triazol-3-yl]benzamide]",> 40
9,CCN(CC)c1cc(Nc2nc(NC(=O)c3ccccc3)nn2-c2ccccc2)ncn1 [Compound F1],> 40
10,COc1ccc(-n2nc(NC(=O)c3ccccc3)nc2NC(=O)c2ccccc2)cc1 [Compound F2],> 40
11,O=C(Nc1nc(Nc2cc(N3CCCC3)ncn2)n(-c2ccccc2)n1)c1ccccc1 [Compound G1],> 40
12,O=C(Nc1nc(Nc2ccncn2)n(-c2ccccc2)n1)c1ccccc1 [Compound H1],> 40
13,Cc1ccccc1C(=O)Nc1nc(NC(=O)c2ccccc2)n(-c2ccccc2)n1 [Compound H],> 40
14,O=C(Nc1nc(Nc2ccnc3ccccc23)n(-c2ccccc2)n1)c1ccccc1 [Compound I1],> 40
15,O=C(Nc1nc(NC(=O)c2ccccc2)n(C2CCOCC2)n1)c1ccccc1 [Compound I2],> 40
16,Nc1nc(Nc2nc(NC(=O)c3ccccc3)nn2-c2ccccc2)c2ccccc2n1 [Compound J1],> 40
17,CC(C)C(=O)Nc1nc(Nc2ncnc3ccccc23)n(-c2ccccc2)n1 [Compound K1],> 40
18,"Cc1ccccc1C(=O)Nc1nc(NC(=O)c2ccccc2)nn1-c1ccccc1 [Compound K, N-(5-benzamido-2-phenyl-1,2,4-triazol-3-yl)-2-methyl-benzamide]",> 40
19,C/C=C/C(=O)Nc1nc(Nc2ncnc3ccccc23)n(-c2ccccc2)n1 [Compound L1],> 40

# The remaining lines, values ahead:
row,EC50 [µM],Compound
1,> 40,C=CC(=O)Nc1nc(NC(=O)c2ccccc2)nn1-c1ccccc1 [Compound L2]
2,> 40,C=C(C)C(=O)Nc1nc(Nc2ncnc3ccccc23)n(-c2ccccc2)n1 [Compound M1]
3,> 40,O=C(Nc1nc(NC(=O)c2nc3ccccc3s2)n(-c2ccccc2)n1)c1ccccc1 [Compound M2]
4,> 40,Nc1nc(Nc2nc(NC(=O)c3ccccc3)nn2-c2ccccc2)nc2ccccc12 [Compound N1]
5,> 40,O=C(Nc1nc(Nc2nc(O)c3ccccc3n2)n(-c2ccccc2)n1)c1ccccc1 [Compound O1]
6,> 40,O=C(Nc1nc(NC(=O)c2ccccc2)n(-c2cccc3cccnc23)n1)c1ccccc1 [Compound O2]
7,> 40,O=C(Nc1nc(NC(=O)c2ccccc2)n(-c2cccc3ncccc23)n1)c1ccccc1 [Compound P2]
8,> 40,Cc1ccccc1C(=O)Nc1nc(-c2ccncc2)nn1-c1ccccc1 [Compound S2]
9,> 40,Cc1ccccc1C(=O)Nc1nc(-c2cccnc2)nn1-c1ccccc1 [Compound T2]
10,> 40,O=C(Nc1nc(NC(=O)c2cccc([N+](=O)[O-])c2)n(-c2ccccc2)n1)c1ccccc1 [Compound V1]
11,> 40,Cc1ccccc1C(=O)Nc1nc(C2CCOCC2)nn1-c1ccccc1 [Compound V2]
12,> 40,Cc1ccccc1C(=O)Nc1nc(NC(=O)c2ccccc2C)n(C(C)C)n1 [Compound W2]
13,> 40,O=C(Nc1nc(NC(=O)c2ccccc2)n(-c2ccc(-c3ccccc3)cc2)n1)c1ccccc1 [Compound X1]
